Results taken from ChEMBL document CHEMBL4480418, “Antibacterial activity of indolyl-quinolinium derivatives and study their mode of action” (Bioorg Med Chem, 2019).
Values after ≈ are worked out from the molar mass of the structure shown. Active and inactive are the calls of the source. The rule behind the calls is not given here.

Key:
Staphylococcus aureus [1] = experiment: Antimicrobial activity against penicillin-resistant Staphylococcus aureus ATCC 29213 assessed as ratio of MIC after and before 15 serial passages preincubated followed by replating and measured after 24 hrs; assay type: functional
Escherichia coli [2] = experiment: Antimicrobial activity against NDM1 beta -lactamse expressing Escherichia coli ATCC BAA-2469 measured after 18 hrs by broth microdilution method; assay type: functional; settings: ATCC BAA-2469, 18 h
Enterococcus faecalis = experiment: Antimicrobial activity against Enterococcus faecalis ATCC 29212 measured after 18 hrs by broth microdilution method; assay type: functional; settings: ATCC 29212, 18 h
Staphylococcus aureus [3] = experiment: Antimicrobial activity against methicillin-resistant Staphylococcus aureus ATCC 43300 measured after 18 hrs by broth microdilution method; assay type: functional; settings: ATCC 43300, 18 h
Enterococcus faecium [4] = experiment: Antimicrobial activity against vancomycin-resistant Enterococcus faecium ATCC 700221 measured after 18 hrs by broth microdilution method; assay type: functional; settings: ATCC 700221, 18 h
Acinetobacter baumannii = experiment: Antimicrobial activity against multidrug-resistant Acinetobacter baumannii ATCC 19606 measured after 18 hrs by broth microdilution method; assay type: functional; settings: ATCC 19606 = CIP 70.34 = JCM 6841, 18 h
Staphylococcus aureus [5] = experiment: Antimicrobial activity against Staphylococcus aureus ATCC 25923 measured after 18 hrs by broth microdilution method; assay type: functional; settings: ATCC 25923, 18 h
Staphylococcus aureus [6] = experiment: Antimicrobial activity against methicillin-resistant Staphylococcus aureus ATCC BAA-41 measured after 18 hrs by broth microdilution method; assay type: functional; settings: ATCC BAA-41, 18 h
Pseudomonas aeruginosa = experiment: Antimicrobial activity against multidrug-resistant Pseudomonas aeruginosa ATCC BAA-2108 measured after 18 hrs by broth microdilution method; assay type: functional; settings: ATCC BAA-2108, 18 h
Enterobacter cloacae = experiment: Antimicrobial activity against Ampc beta-lactamase expressing Enterobacter cloacae ATCC BAA-1143 measured after 18 hrs by broth microdilution method; assay type: functional; settings: ATCC BAA-1143, 18 h
Staphylococcus aureus [7] = experiment: Antimicrobial activity against penicillin-resistant Staphylococcus aureus ATCC 29213 measured after 18 hrs by broth microdilution method; assay type: functional; settings: ATCC 29213, 18 h
Klebsiella pneumoniae = experiment: Antimicrobial activity against NDM1 beta-lactamase expressing Klebsiella pneumoniae ATCC BAA-2470 measured after 18 hrs by broth microdilution method; assay type: functional; settings: ATCC BAA-2470, 18 h
Escherichia coli [8] = experiment: Antimicrobial activity against Escherichia coli ATCC 25922 measured after 18 hrs by broth microdilution method; assay type: functional; settings: ATCC 25922, 18 h
Enterococcus faecium [9] = experiment: Antimicrobial activity against drug-susceptible Enterococcus faecium ATCC 49624 measured after 18 hrs by broth microdilution method; assay type: functional; settings: ATCC 49624, 18 h
Bacillus subtilis = experiment: Antibacterial activity against Bacillus subtilis 168 measured after 18 hrs by broth microdilution method; assay type: functional; settings: subsp. subtilis str. 168, 18 h
[10] = target: T1, Cell division protein FtsZ (Bacillus subtilis (strain 168)) (UniProt P17865); experiment: Inhibition of cell division function of FtsZ in Bacillus subtilis 168 assessed as increase in cell length at MIC after 4 hrs by FM4-64 dye based confocal microscopic method; settings: Bacillus subtilis subsp. subtilis str. 168
T1 sequence (whole entry): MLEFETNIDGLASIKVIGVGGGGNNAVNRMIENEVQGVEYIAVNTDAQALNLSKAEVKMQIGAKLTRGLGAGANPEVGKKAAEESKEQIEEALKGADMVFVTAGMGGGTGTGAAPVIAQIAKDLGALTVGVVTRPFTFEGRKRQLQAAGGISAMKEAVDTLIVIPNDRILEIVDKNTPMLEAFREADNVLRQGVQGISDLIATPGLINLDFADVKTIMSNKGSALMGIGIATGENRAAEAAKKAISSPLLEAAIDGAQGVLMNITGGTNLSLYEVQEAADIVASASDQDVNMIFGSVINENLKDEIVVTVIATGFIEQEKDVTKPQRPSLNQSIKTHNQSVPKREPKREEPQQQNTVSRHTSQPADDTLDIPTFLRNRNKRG

Staphylococcus aureus [11] = experiment: Bactericidal activity against methicillin-resistant Staphylococcus aureus ATCC BAA-41 incubated for 18 hrs followed by replating on TSB agar and measured after 24 hrs by broth microdilution method; assay type: functional
Staphylococcus aureus [12] = experiment: Bactericidal activity against penicillin-resistant Staphylococcus aureus ATCC 29213 incubated for 18 hrs followed by replating on TSB agar and measured after 24 hrs by broth microdilution method; assay type: functional

SMILES | Ratio (Staphylococcus aureus [1]) | MIC (Escherichia coli [2]) [µg/mL] | MIC (Enterococcus faecalis) [µg/mL] | MIC (Staphylococcus aureus [3]) [µg/mL] | MIC (Enterococcus faecium [4]) [µg/mL] | MIC (Acinetobacter baumannii) [µg/mL] | MIC (Staphylococcus aureus [5]) [µg/mL] | MIC (Staphylococcus aureus [6]) [µg/mL] | MIC (Pseudomonas aeruginosa) [µg/mL] | MIC (Enterobacter cloacae) [µg/mL] | MIC (Staphylococcus aureus [7]) [µg/mL] | MIC (Klebsiella pneumoniae) [µg/mL] | MIC (Escherichia coli [8]) [µg/mL] | MIC (Enterococcus faecium [9]) [µg/mL] | MIC (Bacillus subtilis) [µg/mL] | inhibition [10] | MBC (Staphylococcus aureus [11]) [µg/mL] | MBC (Staphylococcus aureus [12]) [µg/mL]
CCn1cc(C(=O)O)c(=O)c2cc(F)c(N3CCNCC3)cc21 [NORFLOXACIN] | 500 | – | – | – | – | – | – | – | – | – | – | – | – | – | – | – | – | –
C[n+]1c(/C=C/c2c[nH]c3ccccc23)cc(N2CCOCC2)c2ccccc21.[I-] | – | > 64 | 16 | 32 | 32 | > 64 | 16 | 32 | > 64 | > 64 | 16 | > 64 | 64 | 16 | 16 | – | – | –
CC1CCN(c2cc(/C=C/c3c[nH]c4ccccc34)[n+](C)c3ccccc23)CC1.[I-] | – | 32 | 4 | 4 | 4 | 32 | 2 | 4 | > 64 | > 64 | 4 | > 64 | 16 | 2 | 4 | Active | – | –
C[n+]1c(/C=C/c2cc3ccccc3[nH]2)cc(N2CCOCC2)c2ccccc21.[I-] | – | 64 | 64 | 16 | 32 | > 64 | 16 | 16 | > 64 | > 64 | 16 | > 64 | 64 | 16 | 8 | – | – | –
CCN(CC)CCNc1cc(/C=C/c2cc3ccccc3[nH]2)[n+](C)c2ccccc12.[I-] | – | 64 | 64 | 64 | 64 | > 64 | 16 | 32 | > 64 | > 64 | 16 | > 64 | 64 | 32 | 16 | – | – | –
CC1CCN(c2cc(/C=C/c3cc4ccccc4[nH]3)[n+](C)c3ccccc23)CC1.[I-] | – | 32 | 8 | 8 | 8 | > 64 | 4 | 8 | > 64 | > 64 | 4 | > 64 | 32 | 4 | 8 | – | – | –
C[n+]1c(/C=C/c2cc3ccccc3[nH]2)ccc2ccccc21.[I-] | – | 64 | 32 | 64 | 64 | > 64 | 32 | 32 | > 64 | > 64 | 32 | > 64 | 64 | 32 | 32 | – | – | –
CO[C@H]1/C=C/O[C@@]2(C)Oc3c(C)c(O)c4c(O)c(c(/C=N/N5CCN(C)CC5)c(O)c4c3C2=O)NC(=O)/C(C)=C\C=C\[C@H](C)[C@H](O)[C@@H](C)[C@@H](O)[C@@H](C)[C@H](OC(C)=O)[C@@H]1C [RIFAMPIN] | 2000 | – | – | – | – | – | – | – | – | – | – | – | – | – | – | – | – | –
CCN(CC)CCNc1cc(/C=C/c2c[nH]c3ccccc23)[n+](C)c2ccccc12.[I-] | – | 64 | 64 | 32 | 64 | > 64 | 16 | 32 | > 64 | > 64 | 16 | > 64 | 64 | 32 | 16 | – | – | –
C[n+]1c(/C=C/c2cc3ccccc3[nH]2)cc(NCCN2CCCCC2)c2ccccc21.[I-] | – | 64 | 64 | 32 | 32 | 64 | 16 | 32 | > 64 | > 64 | 16 | > 64 | 32 | 16 | 16 | – | – | –
C[n+]1c(/C=C/c2c[nH]c3ccccc23)ccc2ccccc21.[I-] | – | > 64 | 32 | 32 | 64 | > 64 | 32 | 32 | > 64 | > 64 | 32 | > 64 | > 64 | 32 | 32 | – | – | –
C[n+]1c(/C=C/c2c[nH]c3ccccc23)cc(NCCN2CCCC2)c2ccccc21.[I-] | – | 64 | 64 | 64 | 64 | > 64 | 16 | 64 | > 64 | > 64 | 16 | > 64 | 64 | 32 | 32 | – | – | –
O=C(O)c1cn(C2CC2)c2cc(N3CCNCC3)c(F)cc2c1=O [CIPROFLOXACIN] | – | > 64 | 4 (≈ 12.1 µM) | 2 (≈ 6.04 µM) | > 64 | 2 (≈ 6.04 µM) | < 0.125 | > 64 | 64 (≈ 193 µM) | – | 2 (≈ 6.04 µM) | 64 (≈ 193 µM) | < 0.125 | 32 (≈ 96.6 µM) | 2 (≈ 6.04 µM) | – | – | –
CN[C@H](CC(C)C)C(=O)N[C@H]1C(=O)N[C@@H](CC(N)=O)C(=O)N[C@H]2C(=O)N[C@H]3C(=O)N[C@H](C(=O)N[C@H](C(=O)O)c4cc(O)cc(O)c4-c4cc3ccc4O)[C@H](O)c3ccc(c(Cl)c3)Oc3cc2cc(c3O[C@@H]2O[C@H](CO)[C@@H](O)[C@H](O)[C@H]2O[C@H]2C[C@](C)(N)[C@H](O)[C@H](C)O2)Oc2ccc(cc2Cl)[C@H]1O [VANCOMYCIN] | – | > 64 | 2 (≈ 1.38 µM) | – | > 64 | 64 (≈ 44.2 µM) | – | – | > 64 | > 64 | – | > 64 | > 64 | – | 0.25 (≈ 0.173 µM) | – | 2 (≈ 1.38 µM) | 2 (≈ 1.38 µM)
C[n+]1c(/C=C/c2c[nH]c3ccccc23)cc(NCCN2CCOCC2)c2ccccc21.[I-] | – | > 64 | 64 | 64 | 64 | > 64 | 64 | 64 | > 64 | > 64 | 32 | > 64 | > 64 | 32 | 64 | – | – | –
C[n+]1c(/C=C/c2c[nH]c3ccccc23)cc(N2CCCC2)c2ccccc21.[I-] | – | 32 | 16 | 16 | 8 | 64 | 4 | 4 | > 64 | > 64 | 2 | > 64 | 32 | 4 | 8 | – | – | –
C[n+]1c(/C=C/c2cc3ccccc3[nH]2)cc(N2CCCC2)c2ccccc21.[I-] | – | 32 | 16 | 8 | 16 | 64 | 4 | 8 | > 64 | > 64 | 2 | > 64 | 32 | 8 | 8 | – | – | –
CC1(C)S[C@@H]2[C@H](NC(=O)Cc3ccccc3)C(=O)N2[C@H]1C(=O)O [PENICILLIN G] | – | > 64 | 0.5 (≈ 1.5 µM) | > 64 | > 64 | 64 (≈ 191 µM) | < 0.125 | > 64 | > 64 | > 64 | > 64 | > 64 | 1 (≈ 2.99 µM) | 0.25 (≈ 0.748 µM) | 32 (≈ 95.7 µM) | – | – | –
